Results published in US20220032023A1, “ULTRA-SHARP MICRONEEDLE” (THE TRUSTEES OF COLUMBIA UNIVERSITY IN THE CITY OF NEW YORK, priority 2019, published 2022).
Where two headings read alike, the source gives them in different places.

Tested on: guinea pig perilymph proteome
Method: Animals were treated and sampled independently, and perilymph samples were stored at −80° C. and processed for proteomics analysis upon collection of all samples.
Dexamethasone Treatment of Animals. […] Twenty-two juvenile guinea pigs of either sex weighing between 150 and 300 g were obtained from a commercial vendor (Charles River Laboratories, Inc., Wilmington, Mass.).
Eight animals were assigned to the control group and were not given any treatment prior to aspiration. […] Guinea pigs were anesthetized with isoflurane gas (3.0% for induction and 1.0-3.0% for maintenance). […] The guinea pig remained under isoflurane anesthesia in a left lateral decubitus position for 30 min. The guinea pig was then allowed to recover in its cage until the aspiration procedure.
Aspiration Procedure. All guinea pigs underwent the aspiration procedure detailed below. […] All procedures were performed on the right ear. Guinea pigs were anesthetized with isoflurane gas (3.0% for induction and 1.0-3.0% for maintenance). Lidocaine was injected subcutaneously for local anesthesia. Buprenorphine sustained release (0.1 mg/kg) and meloxicam (0.5 mg/kg) were both administered subcutaneously prior to surgery for postoperative analgesia. To reduce head motion from breath cycles, head fixation was achieved using a modular 3D-printed head holder with two pointed screws placed anterior to the external auditory meatus and posterior to the orbit without piercing the skin.
A scalpel was used to create a 1 cm postauricular incision. Blunt dissection was used to expose the bulla. A 1 mm drill tip fixed onto a Stryker S2 πDrive drill (Stryker, Kalamazoo, Mich.) was used to create a small opening into the middle ear space. Additional bone was removed using forceps to enlarge the opening to 2-3 mm in diameter for optimal visualization of the RWM. A hollow microneedle, mounted onto the tip of a 2 in. long, 30 gauge, blunt small hub removable needle (Hamilton Company, Reno, Nev.), was secured onto a 10 μL Gastight Hamilton syringe (Model 1701 RN, Hamilton Company, Reno, Nev.). The syringe was mounted onto a UMP3 UltraMicroPump (World Precise Instruments, Sarasota, Fla.), and the pump was fixed to a micromanipulator. Using the micromanipulator, the mounted hollow microneedle was slowly advanced toward the RWM and the perforation was confirmed by visualization.
Using the UltraMicroPump, 1 μL of perilymph was aspirated across theRWMover 45 s. The sample was ejected into a 0.5 mL LoBind Microcentrifuge tube (Eppendorf, Hamburg, Germany) containing 2 μL of 1% protease cocktail inhibitor solution (P8340, Sigma-Aldrich, St. Louis, Mo.) in liquid chromatography/mass spectrometry grade water (Optima, ThermoFisher Scientific, Fair Lawn, N.J.) and stored at −80° C. Seventy-two hours after aspiration, animals were sacrificed with pentobarbital overdose.
Proteomics Analysis. All perilymph samples (1 μL) were stored at −80° C. and then processed as described previously. Briefly, samples were purified with a methanol chloroform protein precipitation as previously described. Proteins were resuspended in 8 M urea, 3 mM dithiothreitol (DTT), 100 mM ammonium bicarbonate in liquid chromatography/mass spectrometry grade water, reduced with dithiothreitol, and alkylated with iodoacetamide. For proteolytic digestion, samples were diluted 5-fold in 100 mM ammonium bicarbonate and then digested using sequencing grade trypsin (Promega V511) at a protease/protein ratio of 1:50 at 37° C. for 16 h as described previously. Samples were then desalted with Nest Group C18 Macrospin columns (Southborough, Mass.). Resulting peptides were analyzed by liquid chromatography/mass spectrometry as described previously.

SMILES: C[C@@H]1C[C@H]2[C@@H]3CCC4=CC(=O)C=C[C@]4(C)[C@@]3(F)[C@@H](O)C[C@]2(C)[C@@]1(O)C(=O)COP(=O)(O)O [Dex, Dexamethasone sodium phosphate]
- number of perilymph proteins downregulated compared to control (IP Dex group): 6 proteins
- number of perilymph proteins upregulated compared to control (IP Dex group): 8 proteins
- number of perilymph proteins modulated compared to control (IP Dex group, of 175 proteins analysed): 14 proteins
- number of perilymph proteins downregulated compared to control (IT Dex group): two
- number of perilymph proteins upregulated compared to control (IT Dex group): one
- number of perilymph proteins modulated compared to control (IT Dex group, of 175 proteins analysed): three
- number of perilymph proteins modulated compared to control (by either IP Dex or IT Dex, overall): 15 proteins
